Experimental data from patent US11583529B2, “Treatment of inflammatory disorders” (Aldeyra Therapeutics, Inc., priority 2017, dated 2023).

Legend:
Dry Eye Disease (DED) = experiment: Phase 2b clinical study of I-5 Ophthalmic Solution (0.25% and 0.1%) vs vehicle in subjects with dry eye disease; type: in vivo, human; conditions: for Reason for Study Withdrawal: Adverse Events / Study Completion: Discontinued: N = 100
Source text: Objectives: • To evaluate the efficacy of I-5 Ophthalmic Solutions (0.25% and 0.1%) on baseline to weeks 2, 4, 8, and 12 change scores for sign and symptom endpoints of dry eye disease. • To evaluate effect sizes for efficacy endpoints of I-5 Ophthalmic Solutions (0.25% and 0.1%) vs vehicle for the treatment of the signs and symptoms of dry eye disease to confirm the endpoint selection and sample size for Phase 3 studies. • To evaluate the safety and tolerability of I-5 Ophthalmic Solutions (0.25% and 0.1%) to vehicle for the treatment of the signs and symptoms of dry eye disease.
Treatment: During the 12-week (84±3 days) treatment period, I-5 Ophthalmic Solution at concentrations of 0.1%, 0.25%, or vehicle ophthalmic solution was administered QID by bilateral topical ocular dosing. Subjects were randomized to one of three treatment groups (1:1:1) to receive study drug after the Post-CAE® assessments at Visit 2.
Summary of Visit Schedule: Six visits over the course of approximately 14 weeks • Visit 1=Day −14±2, CAE® Screening • Visit 2=Day 1, CAE® Confirmation/Baseline • Visit 3=Day 15±2, 2-Week Follow-Up • Visit 4=Day 29±2, 4-Week Follow-Up • Visit 5=Day 57±3, 8-Week Follow-Up • Visit 6=Day 85±3, 12-Week CAE® Follow-Up & Study Exit
Note: a subject could not have an Ocular Discomfort score of 4 at time=0); • 12 Had at least one eye, the same eye, satisfy all criteria for 6, 7, 8, 9, 10, and 11 above.
Safety Measures: • Visual acuity • Slit-lamp evaluation • Adverse event query • Intraocular Pressure (IOP) • Dilated fundoscopy
Efficacy Analysis • Evaluated baseline to weeks 2, 4, 8 and 12 change scores with I-5 on DED sign and symptom endpoints (both pre-CAE and CAE endpoints). Each endpoint was analyzed at a two-sided alpha level of 0.05, and the overall type I error was not controlled for in this investigative study. • Evaluated effect size of baseline to weeks 2, 4, 8 and 12 change scores of I-5 vs vehicle on DED sign and symptom endpoints (both pre-CAE and CAE endpoints) to confirm the endpoint selection for primary outcome parameters and sample size for Phase 3 studies with I-5. • Sub-group analyses on effect size of baseline to weeks 2, 4, 8 and 12 change scores of I-5 vs vehicle on DED sign and symptom endpoints (both pre-CAE and CAE endpoints) [Subgroups were prospectively detailed in the Statistical Analysis Plan (SAP)].

[1] = system: dextran sulfate sodium (DSS)-induced acute ulcerative colitis (UC); experiment: 7-Day DSS-induced acute ulcerative colitis model; type: in vivo, female Swiss Webster mice; conditions: for Body weights: 200 mg/kg PO BID (Groups 5, 6, 7, 8, 9, and 10)
[2] = system: rat model of endotoxin induced uveitis; experiment: Rat model of endotoxin-induced uveitis (EIU), topical or intravitreal treatment; type: in vivo, female Lewis rats
Description: An in vivo study was conducted to assess the efficacy of intravitreal administration of compound I-22 in a rat model of endotoxin induced uveitis, one of the most appropriate models for the study of NIU (Smith et al., 1998) (Toxikon Study 16-04078-N1). Ocular inflammation was induced in female Lewis rats (n=10/group) by a single foot pad injection of LPS (100 μL) (Herbort et al., 1988, Graefe's Arch Clin Exp Ophthalmol. 226:553-558). Compound I-22 (5 mg/mL) was administered intravitreally into each eye (25 μg/eye), or topically to both eyes at 1, 3, 7, 10, and 17 hours post-LPS injection, within one hour of LPS administration. Balanced salt solution (BSS) served as a vehicle control. Retinal exams were performed prior to study start and six and 24 hours following LPS administration and scored using a Combined Draize and McDonald Shadduck scoring system, based on assessments of: retinal vasculopathy and retinal hemorrhage, exudate, and detachment.
Endotoxin-induced uveitis was created by a single injection of lipopolysaccharide (LPS; 100 μL) into one hind footpad. Ten (10) female Lewis rats per group received control (balanced salt solution, BSS) or test article (compound I-22) topically to both eyes at 1, 3, 7, 10, and 17 hours post-LPS injection. At each dosing time point, two drops (5 μL each, separated by approximately two minutes, for a total of 10 μL/eye/dose) were instilled into each eye of the animals. Ten female Lewis rats per group received control (BSS) or compound I-22 by a single intravitreal injection (IVT) in each eye at one hour post-LPS injection. Each eye received 5 μL of vehicle or test article.
Animals were anesthetized with isoflurane 1-3.5% for ophthalmic examinations. Both eyes of each animal were evaluated pre-dose using slit-lamp biomicroscopy, and an indirect ophthalmoscope or a surgical microscope, according to the Combined Draize and McDonald-Shadduck Scoring System, and the Ocular Posterior Segment Scoring Scale. All pupils were dilated with 1% tropicamide ophthalmic solution before ocular examination. Only rats showing no signs of eye irritation, ocular defects or preexisting corneal injury were used in the study.
Ophthalmic examinations were performed on both eyes of each animal approximately six and 24 hours following LPS administration, using slit-lamp biomicroscopy and a surgical microscope or via indirect ophthalmoscopy. Pupils were dilated with 1% Tropicamide Ophthalmic Solution before ophthalmic examinations.
Quantitative, continuous data from this study were analyzed using one-way ANOVA. Alternative or additional statistical methods were used as necessary.
In the same study, the efficacy of compound 1-5 was compared to that of compound 1-22. Compound 1-5 was topically administered topically to the eye at hours 1, 3, 7, 10, and 17, after LPS induction, or by a single intravitreal (IVT) injection one hour after LPS induction (n=10 per group), as was compound I-22. Ocular exams were performed 6 and 24 hours after LPS injection. Anterior segments were scored using a combined Draize and McDonald-Shadduck scoring system, and posterior segments were scored using 0 to 1 (vitreous, optic disc, retinal vasculature) and 0 to 4 (retinal and choroidal hemorrhage, exudation, and detachment) scales. Statistical significance from vehicle control was determined by ANOVA, followed by Tukey's post hoc test.

[3] = 0.25% group, majority (>50-100%) of effect vs vehicle at first study endpoint (Week 2 or 4)
[4] = 200 mg/kg PO BID, Days −3 through 6, vs PO vehicle
[5] = intravitreal administration, vs vehicles
[6] = 100 mg/kg IP QD, Days 0 through 6, vs IP vehicle
[7] = 200 mg/kg PO BID, Days 0 through 6, vs PO vehicle

## CC(C)(O)c1nc2ccc(Cl)cc2cc1N [Compound I-5]
Dry Eye Disease (DED); 0.1% QID
  Reason for Study Withdrawal: Adverse Events: 2 (2.0%)
  Study Completion: Discontinued: 3 (3.0%)
Dry Eye Disease (DED); 0.1%, clearest with signs, especially ocular staining
  effects at later time points: Matched Higher Dose Effects at Later Time Points
Dry Eye Disease (DED); 0.25% QID
  Reason for Study Withdrawal: Adverse Events: 10 (10.0%)
  Study Completion: Discontinued: 12 (12.0%)
Dry Eye Disease (DED); [3]
  early onset of effect, sign endpoints (Lissamine green total score, fluorescein total score, tear osmolarity positive; TFBUT negative): Positive early onset for 3 out of 4 sign endpoints
  early onset of effect, symptom endpoints (ODS, OD4SQ, OSDI positive; SANDE negative): Positive early onset for 3 out of 4 symptom endpoints
Dry Eye Disease (DED); ITT, observed data only
  Fluorescein Staining: Central (0-4); Dose Trend?: ✓
  Fluorescein Staining: Central (0-4); Drug Trend?: ✓
  Fluorescein Staining: Conjunctival Sum Score (Nasal and Temporal) (0-8; Σ 2×); Dose Trend?: ✓
  Fluorescein Staining: Conjunctival Sum Score (Nasal and Temporal) (0-8; Σ 2×); Drug Trend?: ✓
  Fluorescein Staining: Corneal Sum Score (Inferior, Superior, and Central) (0-12; Σ 3×); Drug Trend?: ✓
  Fluorescein Staining: Inferior (0-4); Drug Trend?: ✓
  Fluorescein Staining: Nasal (0-4); Dose Trend?: ✓
  Fluorescein Staining: Nasal (0-4); Drug Trend?: ✓
  Fluorescein Staining: Temporal (0-4); Dose Trend?: ✓
  Fluorescein Staining: Temporal (0-4); Drug Trend?: ✓
  Fluorescein Staining: Total Score (all five regions) (0-20; Σ 5×); Drug Trend?: ✓
  OD & 4-Symptom Questionnaire: Burning (0-5); Drug Trend?: ✓
  OD & 4-Symptom Questionnaire: Dryness (0-5); Dose Trend?: ✓
  OD & 4-Symptom Questionnaire: Dryness (0-5); Drug Trend?: ✓
  OD & 4-Symptom Questionnaire: Grittiness (0-5); Dose Trend?: ✓
  OD & 4-Symptom Questionnaire: Grittiness (0-5); Drug Trend?: ✓
  OD & 4-Symptom Questionnaire: Overall Ocular Discomfort (0-5); Dose Trend?: ✓
  OD & 4-Symptom Questionnaire: Overall Ocular Discomfort (0-5); Drug Trend?: ✓
  OD & 4-Symptom Questionnaire: Stinging (0-5); Dose Trend?: ✓
  OD & 4-Symptom Questionnaire: Stinging (0-5); Drug Trend?: ✓
  Ocular Discomfort Scale (0-4); Dose Trend?: ✓
  Ocular Discomfort Scale (0-4); Drug Trend?: ✓
  Ocular Surface Disease Index (OSDI) (0-100); Dose Trend?: ✓
  Ocular Surface Disease Index (OSDI) (0-100); Drug Trend?: ✓
  Osmolarity (mOsm/L); Drug Trend?: ✓
  SANDE Questionnaire Frequency (0-100 mm); Drug Trend?: ✓
  SANDE Questionnaire Severity (0-100 mm); Dose Trend?: ✓
  SANDE Questionnaire Severity (0-100 mm); Drug Trend?: ✓
  Schirmer’s Test (mm); Dose Trend?: ✓
  Schirmer’s Test (mm); Drug Trend?: ✓
  Tear Film Break-up Time (sec); Dose Trend?: ✓
  Usamine Green Staining: Central (0-4); Dose Trend?: ✓
  Usamine Green Staining: Central (0-4); Drug Trend?: ✓
  Usamine Green Staining: Conjunctival Sum Score (Nasal and Temporal) (0-8; Σ 2×); Dose Trend?: ✓
  Usamine Green Staining: Conjunctival Sum Score (Nasal and Temporal) (0-8; Σ 2×); Drug Trend?: ✓
  Usamine Green Staining: Corneal Sum Score (Inferior, Superior, and Central) (0-12; Σ 3×); Dose Trend?: ✓
  Usamine Green Staining: Corneal Sum Score (Inferior, Superior, and Central) (0-12; Σ 3×); Drug Trend?: ✓
  Usamine Green Staining: Inferior (0-4); Dose Trend?: ✓
  Usamine Green Staining: Inferior (0-4); Drug Trend?: ✓
  Usamine Green Staining: Nasal (0-4); Dose Trend?: ✓
  Usamine Green Staining: Nasal (0-4); Drug Trend?: ✓
  Usamine Green Staining: Superior (0-4); Dose Trend?: ✓
  Usamine Green Staining: Temporal (0-4); Dose Trend?: ✓
  Usamine Green Staining: Temporal (0-4); Drug Trend?: ✓
  Usamine Green Staining: Total Score (all five regions) (0-20; Σ 5×); Dose Trend?: ✓
  Usamine Green Staining: Total Score (all five regions) (0-20; Σ 5×); Drug Trend?: ✓
Dry Eye Disease (DED); between 0.1% and 0.25% dose strengths
  Dose Response: Demonstrated
[1]; vs PO vehicle
  Body weights: did not differ significantly
[1]; [4]
  proximal colon edema, reduction: 63%
  proximal colon erosion, reduction: 73%
[2]; IVT, vs vehicle
  ocular exam scores: significantly improved
[2]; [5]
  Total ocular inflammation: lower
  anterior chamber inflammation: lower
  retina-choroid inflammation: lower
[2]; overall
  signs of inflammation in the rat EIU model: reduced
[2]; overall, I-22 compared with I-5
  response in the EIU model: positive response
[2]; topical (TO), 6 hours and 24 hours, vs vehicle
  ocular exam scores: significantly improved
[2]; topical (TO), vs vehicle
  Total ocular inflammation score: lower
  anterior chamber inflammation score: lower
  retina-choroid inflammation score: lower

## CC(C)(O)c1nc2ccccc2cc1N [Compound I-6]
[1]; [6]
  Colon lengths, increase in the direction of normal: 56%
  Colon weight-to-length ratios, reduction in the direction of normal: 35%
  DAI score of occult/gross blood in stool, AUC: significantly lower
  DAI score of stool consistency, area under the curve (AUC): significantly lower
  DAI summed scores, AUC: significantly lower
  full colon PMN percentages, reduction: 53%
  full colon edema, reduction: 53%
  full colon erosion, reduction: 91%
  full colon gland loss, reduction: 82%
  full colon inflammation, reduction: 56%
  full colon lymphoid aggregate counts, reduction: 113%
  full colon neutrophil scores, reduction: 73%
  full colon summed scores, reduction: 68%
  proximal colon gland loss, reduction: 57%
  proximal colon inflammation, reduction: 32%
  proximal colon lymphoid aggregate counts, reduction: 107%
  proximal colon summed scores, reduction: 36%
[1]; 100 mg/kg IP QD, Days 0 through 6, vs IP vehicle (SBECD)
  Body weight loss: significantly inhibited
[1]; vs PO vehicle
  Body weights: did not differ significantly
[1]; [7]
  full colon edema, reduction: 44%
  proximal colon edema, reduction: 48%
  proximal colon inflammation, reduction: 36%
[1]; [4]
  full colon edema, reduction: 58%
  proximal colon edema, reduction: 41%
  proximal colon erosion, reduction: 75%
[1]; Day 2, 100 mg/kg IP QD, Days 0 through 6, vs IP vehicle
  DAI stool consistency scores: significantly reduced
[1]; Day 6, 100 mg/kg IP QD, Days 0 through 6, vs IP vehicle
  DAI summed scores: significantly reduced
[1]; Days 4 and 6, 100 mg/kg IP QD, Days 0 through 6, vs IP vehicle
  DAI occult/gross blood in stool scores: significantly reduced
